PubChem BioAssay AID2060329 (Molecular Pharmacology Branch, DTP, NCI, 2025)
Several values for one entry are separate records, joined by “and”; a condition that tells them apart may be missing. Equal entries are not always repeated.

Test system: MCF7 multi-cell spheroids with HUVEC/MSC, viability
Test: Anticancer human tumor MCF7 cell line growth inhibition [IpAb];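 further: spheroids exposed to agents for seven days before readout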
Conditions: for viability, T/C: stronger effect = lower value; active means viability on the fitted dose curve at most 10% of control; inactive means the rest
Summary of the method: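 Multi-cell spheroids of 60% tumour cells, 25% HUVEC and 15% MSC in ultra-low-attachment U-bottom wells, treated with agents combined with ipatasertib or abemaciclib. Half-log ranges top out near clinical Cmax, or 10 microM when Cmax is unknown.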

[1] = curve of first compound, second compound 0.1 µM
[2] = curve of first compound, second compound 0.316 µM
[3] = curve of first compound, second compound 1 µM
[4] = curve of first compound, second compound 3.16 µM
[5] = curve of first compound, second compound 10 µM
[6] = second compound 0.1 µM, first compound 0.0316 µM
[7] = second compound 0.1 µM, first compound 0.1 µM
[8] = second compound 0.1 µM, first compound 0.316 µM
[9] = second compound 0.1 µM, first compound 1 µM
[10] = second compound 0.1 µM, first compound 3.16 µM
[11] = second compound 0.1 µM, first compound 10 µM
[12] = second compound 0.316 µM, first compound 0.0316 µM
[13] = second compound 0.316 µM, first compound 0.1 µM
[14] = second compound 0.316 µM, first compound 0.316 µM
[15] = second compound 0.316 µM, first compound 1 µM
[16] = second compound 0.316 µM, first compound 3.16 µM
[17] = second compound 0.316 µM, first compound 10 µM
[18] = second compound 1 µM, first compound 0.0316 µM
[19] = second compound 1 µM, first compound 0.1 µM
[20] = second compound 1 µM, first compound 0.316 µM
[21] = second compound 1 µM, first compound 1 µM
[22] = second compound 1 µM, first compound 3.16 µM
[23] = second compound 1 µM, first compound 10 µM
[24] = second compound 3.16 µM, first compound 0.0316 µM
[25] = second compound 3.16 µM, first compound 0.1 µM
[26] = second compound 3.16 µM, first compound 0.316 µM
[27] = second compound 3.16 µM, first compound 1 µM
[28] = second compound 3.16 µM, first compound 3.16 µM
[29] = second compound 3.16 µM, first compound 10 µM
[30] = second compound 10 µM, first compound 0.0316 µM
[31] = second compound 10 µM, first compound 0.1 µM
[32] = second compound 10 µM, first compound 0.316 µM
[33] = second compound 10 µM, first compound 1 µM
[34] = second compound 10 µM, first compound 3.16 µM
[35] = second compound 10 µM, first compound 10 µM
[36] = second compound 0.1 µM, first compound 0.000316 µM
[37] = second compound 0.1 µM, first compound 0.001 µM
[38] = second compound 0.1 µM, first compound 0.00316 µM
[39] = second compound 0.1 µM, first compound 0.01 µM
[40] = second compound 0.316 µM, first compound 0.000316 µM
[41] = second compound 0.316 µM, first compound 0.001 µM
[42] = second compound 0.316 µM, first compound 0.00316 µM
[43] = second compound 0.316 µM, first compound 0.01 µM
[44] = second compound 1 µM, first compound 0.000316 µM
[45] = second compound 1 µM, first compound 0.001 µM
[46] = second compound 1 µM, first compound 0.00316 µM
[47] = second compound 1 µM, first compound 0.01 µM

Cn1ncc(Cl)c1-c1cc(C(=O)NC(CN)Cc2cccc(F)c2)sc1Cl (stereo unspecified) + CC(C)NCC(C(=O)N1CCN(c2ncnc3c2C(C)CC3O)CC1)c1ccc(Cl)cc1
996 nM: IC50 [2]
inactive: viability, T/C [6] 85.2% | viability, T/C [7] 79.4% | viability, T/C [8] 74.2% | viability, T/C [9] 59.2% | viability, T/C [12] 84.1% | viability, T/C [13] 73.7% | viability, T/C [14] 72.5% | viability, T/C [15] 51.1% | viability, T/C [16] 10.7% | viability, T/C [18] 74.7% | viability, T/C [19] 70.7% | viability, T/C [20] 67.5% | viability, T/C [21] 63.4% | viability, T/C [24] 59.9% | viability, T/C [25] 61.4% | viability, T/C [26] 54% | viability, T/C [27] 43.2% | viability, T/C [30] 42.6% | viability, T/C [31] 49.1% | viability, T/C [32] 47.3% | viability, T/C [33] 43.3%
1200 nM: IC50 [1]
566 nM: IC50 [4]
1310 nM: IC50 [3]
< 31.6 nM: IC50 [5]
active: viability, T/C [10] 3.8% | viability, T/C [11] 0.14% | viability, T/C [17] 0.13% | viability, T/C [22] 7% | viability, T/C [23] 0.12% | viability, T/C [28] 6.48% | viability, T/C [29] 0.13% | viability, T/C [34] 2.17% | viability, T/C [35] 0.59%

CC(C)n1nc(-c2ccc3oc(N)nc3c2)c2c(N)ncnc21
25.9 nM and 16.4 nM: IC50 (curve of compound)
inactive: viability, T/C (compound 0.000316 µM) 98.9% and 88.3% | viability, T/C (compound 0.001 µM) 86.4% and 81.6% | viability, T/C (compound 0.00316 µM) 80.8% and 82.8% | viability, T/C (compound 0.01 µM) 73.5% and 65.5% | viability, T/C (compound 0.0316 µM) 42.5% and 29.7% | viability, T/C (compound 0.1 µM) 25% and 22.1%

CCCS(=O)(=O)Nc1ccc(F)c(C(=O)c2c[nH]c3ncc(-c4ccc(Cl)cc4)cc23)c1F
inactive: viability, T/C (compound 0.0316 µM) 102% and 98.6% | viability, T/C (compound 0.1 µM) 106% and 100% | viability, T/C (compound 0.316 µM) 102% and 96.2% | viability, T/C (compound 1 µM) 104% and 97% | viability, T/C (compound 3.16 µM) 99.4% and 93.1% | viability, T/C (compound 10 µM) 105% and 97.9%
> 10000 nM: IC50 (curve of compound)

C=CC(=O)N1CCN(c2nc(=O)n(-c3c(C)ccnc3C(C)C)c3nc(-c4c(O)cccc4F)c(F)cc23)C(C)C1 (stereo unspecified)
> 10000 nM: IC50 (curve of compound)
inactive: viability, T/C (compound 0.0316 µM) 98.6% and 117% | viability, T/C (compound 0.1 µM) 106% | viability, T/C (compound 0.316 µM) 102% and 121% | viability, T/C (compound 1 µM) 103% and 107% | viability, T/C (compound 3.16 µM) 107% and 83.4% | viability, T/C (compound 10 µM) 71.2% and 76.7%

CCCS(=O)(=O)Nc1ccc(F)c(C(=O)c2c[nH]c3ncc(-c4ccc(Cl)cc4)cc23)c1F + CC(C)NCC(C(=O)N1CCN(c2ncnc3c2C(C)CC3O)CC1)c1ccc(Cl)cc1
inactive: viability, T/C [6] 97% | viability, T/C [7] 90% | viability, T/C [8] 90.3% | viability, T/C [9] 98.8% | viability, T/C [10] 98.5% | viability, T/C [11] 101% | viability, T/C [12] 85.4% | viability, T/C [13] 76.6% | viability, T/C [14] 86.3% | viability, T/C [15] 76.5% | viability, T/C [16] 80.2% | viability, T/C [17] 85.2% | viability, T/C [18] 73.2% | viability, T/C [19] 70.3% | viability, T/C [20] 69.1% | viability, T/C [21] 64.5% | viability, T/C [22] 71.3% | viability, T/C [23] 76.6% | viability, T/C [24] 59.4% | viability, T/C [25] 60.1% | viability, T/C [26] 53.5% | viability, T/C [27] 52.7% | viability, T/C [28] 79.8% | viability, T/C [29] 60% | viability, T/C [30] 43.4% | viability, T/C [31] 42.7% | viability, T/C [32] 44.1% | viability, T/C [33] 52.4% | viability, T/C [34] 53.7%
active: viability, T/C [35] 9.37%
> 10000 nM: IC50 [1] | IC50 [2] | IC50 [3] | IC50 [4]
31.6 nM: IC50 [5]

Cn1ncnc1[C@H]1c2n[nH]c(=O)c3cc(F)cc(c23)N[C@@H]1c1ccc(F)cc1 + CCN1CCN(Cc2ccc(Nc3ncc(F)c(-c4cc(F)c5nc(C)n(C(C)C)c5c4)n3)nc2)CC1
inactive: viability, T/C (second compound 0.01 µM, first compound 0.000316 µM) 95.3% | viability, T/C (second compound 0.01 µM, first compound 0.001 µM) 102% | viability, T/C (second compound 0.01 µM, first compound 0.00316 µM) 115% | viability, T/C (second compound 0.01 µM, first compound 0.01 µM) 98.6% | viability, T/C (second compound 0.01 µM, first compound 0.0316 µM) 106% | viability, T/C (second compound 0.01 µM, first compound 0.1 µM) 92.5% | viability, T/C (second compound 0.0316 µM, first compound 0.000316 µM) 98.6% | viability, T/C (second compound 0.0316 µM, first compound 0.001 µM) 107% | viability, T/C (second compound 0.0316 µM, first compound 0.00316 µM) 83.8% | viability, T/C (second compound 0.0316 µM, first compound 0.01 µM) 89.4% | viability, T/C (second compound 0.0316 µM, first compound 0.0316 µM) 100% | viability, T/C (second compound 0.0316 µM, first compound 0.1 µM) 88.1% | viability, T/C [36] 114% | viability, T/C [37] 103% | viability, T/C [38] 107% | viability, T/C [39] 87.5% | viability, T/C [6] 85.1% | viability, T/C [7] 85.3% | viability, T/C [40] 108% | viability, T/C [41] 106% | viability, T/C [42] 93.4% | viability, T/C [43] 97.4% | viability, T/C [12] 90.2% | viability, T/C [13] 88.7% | viability, T/C [44] 100% | viability, T/C [45] 105% | viability, T/C [46] 84.4% | viability, T/C [47] 100% | viability, T/C [18] 85.3% | viability, T/C [19] 85.7%
> 100 nM: IC50 (curve of first compound, second compound 0.01 µM) | IC50 (curve of first compound, second compound 0.0316 µM) | IC50 [1] | IC50 [2] | IC50 [3]

Cn1ncnc1[C@H]1c2n[nH]c(=O)c3cc(F)cc(c23)N[C@@H]1c1ccc(F)cc1 + CC(C)NCC(C(=O)N1CCN(c2ncnc3c2C(C)CC3O)CC1)c1ccc(Cl)cc1
20.3 nM: IC50 [4]
< 0.316 nM: IC50 [5]
inactive: viability, T/C [36] 98.7% | viability, T/C [37] 92.8% | viability, T/C [38] 89.7% | viability, T/C [39] 87.5% | viability, T/C [6] 79.8% | viability, T/C [7] 85.5% | viability, T/C [40] 74.4% | viability, T/C [41] 79.9% | viability, T/C [42] 81.2% | viability, T/C [43] 72.5% | viability, T/C [12] 71.8% | viability, T/C [13] 82.6% | viability, T/C [44] 67.9% | viability, T/C [45] 75.6% | viability, T/C [46] 67.2% | viability, T/C [47] 62.3% | viability, T/C [18] 63% | viability, T/C [19] 56.5% | viability, T/C (second compound 3.16 µM, first compound 0.000316 µM) 59% | viability, T/C (second compound 3.16 µM, first compound 0.001 µM) 56.3% | viability, T/C (second compound 3.16 µM, first compound 0.00316 µM) 58.3% | viability, T/C (second compound 3.16 µM, first compound 0.01 µM) 50.1% | viability, T/C [24] 47.4% | viability, T/C [25] 46.4% | viability, T/C (second compound 10 µM, first compound 0.000316 µM) 42.3% | viability, T/C (second compound 10 µM, first compound 0.001 µM) 46.5% | viability, T/C (second compound 10 µM, first compound 0.00316 µM) 39.9% | viability, T/C (second compound 10 µM, first compound 0.01 µM) 36.1% | viability, T/C [30] 41.5% | viability, T/C [31] 36.4%
> 100 nM: IC50 [1] | IC50 [2] | IC50 [3]
